# Peptide text beside a SMILES is read from it.
# Key:
# Type in all cases: biochemical
# HDAC2 = target: T1, HDAC2 (Homo sapiens, UniProt Q92769); test: HDAC2 inhibition, full IC50 measurement (Reaction Biology; fluorogenic p53 peptide RHKK(Ac)AMC)
# T1 construct: purchased Reaction Biology Corporation (assay run by the CRO)
# Outline: (§1)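 Test peptides were dispensed acoustically with enzyme in 50 mM Tris-HCl pH 8.0, 137 mM NaCl, 2.7 mM KCl, 1 mM MgCl2, 1 mg/ml BSA and 1% DMSO. After adding 50 μM RHKK(Ac)AMC, reactions ran 1 h at 30 °C, then developer was added.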
# HDAC1 = target: T2, HDAC1 (Homo sapiens, UniProt Q13547); test: HDAC1 inhibition, full IC50 measurement (Reaction Biology; fluorogenic p53 peptide RHKK(Ac)AMC); conditions: t1/t2 replicates
# T2 construct: purchased Reaction Biology Corporation (assay run by the CRO)
# Outline: as §1
# HDAC8 = target: T3, HDAC8 (Homo sapiens, UniProt Q9BY41); test: HDAC8 inhibition, full IC50 measurement (Reaction Biology; fluorogenic p53 peptide RHKK(Ac)AMC); conditions: t1/t2 replicates
# T3 construct: purchased Reaction Biology Corporation (assay run by the CRO)
# T3 sequence (Q9BY41 1-377): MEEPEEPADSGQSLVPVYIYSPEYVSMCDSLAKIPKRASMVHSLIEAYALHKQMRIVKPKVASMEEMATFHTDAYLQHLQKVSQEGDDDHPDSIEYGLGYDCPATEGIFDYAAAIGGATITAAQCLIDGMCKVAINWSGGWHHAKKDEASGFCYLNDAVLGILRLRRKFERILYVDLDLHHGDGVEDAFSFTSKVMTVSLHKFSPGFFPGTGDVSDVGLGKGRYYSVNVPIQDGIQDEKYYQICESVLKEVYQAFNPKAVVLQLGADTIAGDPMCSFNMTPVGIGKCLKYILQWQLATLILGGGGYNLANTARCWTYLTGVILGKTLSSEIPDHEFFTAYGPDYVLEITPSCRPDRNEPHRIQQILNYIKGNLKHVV
# Outline: as §1
# HDAC3 = target: T4, HDAC3 (Homo sapiens, UniProt O15379); test: HDAC3 inhibition, full IC50 measurement (Reaction Biology; fluorogenic p53 peptide RHKK(Ac)AMC)
# T4 construct: purchased Reaction Biology Corporation (assay run by the CRO)
# Outline: as §1
# [1] = peptide conc. 1.00E-05 M, listed as des2.2.0_t1
# [2] = peptide conc. 1.00E-05 M, listed as des2.2.0_t2
# [3] = peptide conc. 1.11E-06 M, listed as des2.2.0_t1
# [4] = peptide conc. 1.11E-06 M, listed as des2.2.0_t2
# [5] = peptide conc. 1.23E-07 M, listed as des2.2.0_t1
# [6] = peptide conc. 1.23E-07 M, listed as des2.2.0_t2
# [7] = peptide conc. 1.37E-08 M, listed as des2.2.0_t1
# [8] = peptide conc. 1.37E-08 M, listed as des2.2.0_t2
# [9] = peptide conc. 1.52E-09 M, listed as des2.2.0_t1
# [10] = peptide conc. 1.52E-09 M, listed as des2.2.0_t2
# [11] = peptide conc. 3.33E-06 M, listed as des2.2.0_t1
# [12] = peptide conc. 3.33E-06 M, listed as des2.2.0_t2
# [13] = peptide conc. 3.70E-07 M, listed as des2.2.0_t1
# [14] = peptide conc. 3.70E-07 M, listed as des2.2.0_t2
# [15] = peptide conc. 4.12E-08 M, listed as des2.2.0_t1
# [16] = peptide conc. 4.12E-08 M, listed as des2.2.0_t2
# [17] = peptide conc. 4.57E-09 M, listed as des2.2.0_t1
# [18] = peptide conc. 4.57E-09 M, listed as des2.2.0_t2
# [19] = peptide conc. 5.08E-10 M, listed as des2.2.0_t1
# [20] = peptide conc. 5.08E-10 M, listed as des2.2.0_t2
# T1 sequence (Q92769 whole entry): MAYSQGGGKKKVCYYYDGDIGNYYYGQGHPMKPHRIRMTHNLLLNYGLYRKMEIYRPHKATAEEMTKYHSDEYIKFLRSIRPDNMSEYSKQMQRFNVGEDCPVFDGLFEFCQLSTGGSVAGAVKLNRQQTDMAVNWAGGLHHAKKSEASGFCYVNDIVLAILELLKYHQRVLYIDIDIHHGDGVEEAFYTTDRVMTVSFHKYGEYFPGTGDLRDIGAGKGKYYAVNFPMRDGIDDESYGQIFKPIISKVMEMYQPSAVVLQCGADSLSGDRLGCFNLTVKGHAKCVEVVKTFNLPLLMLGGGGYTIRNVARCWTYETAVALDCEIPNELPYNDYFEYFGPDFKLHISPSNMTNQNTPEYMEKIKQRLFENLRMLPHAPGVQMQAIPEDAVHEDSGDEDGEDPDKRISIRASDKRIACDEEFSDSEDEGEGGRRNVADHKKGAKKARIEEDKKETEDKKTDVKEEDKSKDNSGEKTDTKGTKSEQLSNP
# T2 sequence (Q13547 whole entry): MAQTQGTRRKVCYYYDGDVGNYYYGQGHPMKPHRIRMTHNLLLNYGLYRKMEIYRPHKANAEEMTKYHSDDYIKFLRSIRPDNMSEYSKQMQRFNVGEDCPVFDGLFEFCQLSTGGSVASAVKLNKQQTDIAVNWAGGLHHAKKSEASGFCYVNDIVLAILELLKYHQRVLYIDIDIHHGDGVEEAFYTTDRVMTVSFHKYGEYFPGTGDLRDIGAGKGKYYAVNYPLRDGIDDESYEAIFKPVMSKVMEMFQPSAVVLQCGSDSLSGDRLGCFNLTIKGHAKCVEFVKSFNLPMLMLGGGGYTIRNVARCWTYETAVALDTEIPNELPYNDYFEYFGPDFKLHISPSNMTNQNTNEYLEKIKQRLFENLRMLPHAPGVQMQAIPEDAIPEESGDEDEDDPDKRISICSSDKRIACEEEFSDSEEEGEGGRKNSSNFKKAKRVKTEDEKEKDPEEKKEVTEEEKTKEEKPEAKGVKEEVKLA
# T4 sequence (O15379 whole entry): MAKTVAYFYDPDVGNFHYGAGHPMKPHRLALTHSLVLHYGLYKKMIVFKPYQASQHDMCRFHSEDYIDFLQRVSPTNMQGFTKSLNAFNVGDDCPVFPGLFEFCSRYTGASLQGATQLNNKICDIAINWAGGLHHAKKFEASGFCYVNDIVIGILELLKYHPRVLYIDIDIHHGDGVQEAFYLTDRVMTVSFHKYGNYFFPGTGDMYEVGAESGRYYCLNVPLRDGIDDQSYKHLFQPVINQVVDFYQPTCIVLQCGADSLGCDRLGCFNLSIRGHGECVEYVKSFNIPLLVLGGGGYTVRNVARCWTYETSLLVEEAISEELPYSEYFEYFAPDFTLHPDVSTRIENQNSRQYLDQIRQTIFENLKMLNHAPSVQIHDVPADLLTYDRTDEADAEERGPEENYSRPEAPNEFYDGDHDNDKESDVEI
# T4 sequence (Q9Y618 395-489 partner limits assumed): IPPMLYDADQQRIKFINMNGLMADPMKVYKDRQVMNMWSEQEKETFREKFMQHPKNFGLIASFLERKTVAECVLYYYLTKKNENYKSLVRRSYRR
compound,measurement,setting,value
"CC(C)C[C@H]1NC(=O)[C@H](Cc2c[nH]c3ccccc23)NC(=O)[C@H](CCCCCS)NC(=O)[C@@H](Cc2ccc(O)cc2)NC(=O)[C@@H](C(C)C)NC(=O)[C@H](Cc2c[nH]cn2)NC(=O)CNC(=O)CNC(=O)[C@@H](CO)NC1=O [des2.2.0, SHA-Trp-dLeu-dSer-Gly-Gly-His-dVal-dTyr] (HELM PEPTIDE1{G.G.H.[dV].[dY].[O=C([C@H](CCCCCS)N[*:1])[*:2]].W.[dL].[dS]}$PEPTIDE1,PEPTIDE1,1:R1-9:R2$$$V2.0)",HDAC2 activity raw data (signal),"HDAC2; Conc. 1.00E-05 M, t1",686926
same,HDAC2 activity raw data (signal),"HDAC2; Conc. 1.00E-05 M, t2",755168
same,HDAC2 activity raw data (signal),"HDAC2; Conc. 1.11E-06 M, t1",808545
same,HDAC2 activity raw data (signal),"HDAC2; Conc. 1.11E-06 M, t2",1100762
same,HDAC2 activity raw data (signal),"HDAC2; Conc. 1.23E-07 M, t1",837329
same,HDAC2 activity raw data (signal),"HDAC2; Conc. 1.23E-07 M, t2",1005687
same,HDAC2 activity raw data (signal),"HDAC2; Conc. 1.37E-08 M, t1",715440
same,HDAC2 activity raw data (signal),"HDAC2; Conc. 1.37E-08 M, t2",821926
same,HDAC2 activity raw data (signal),"HDAC2; Conc. 1.52E-09 M, t1",554743
same,HDAC2 activity raw data (signal),"HDAC2; Conc. 1.52E-09 M, t2",656599
same,HDAC2 activity raw data (signal),"HDAC2; Conc. 3.33E-06 M, t1",690169
same,HDAC2 activity raw data (signal),"HDAC2; Conc. 3.33E-06 M, t2",996724
same,HDAC2 activity raw data (signal),"HDAC2; Conc. 3.70E-07 M, t1",822571
same,HDAC2 activity raw data (signal),"HDAC2; Conc. 3.70E-07 M, t2",1061380
same,HDAC2 activity raw data (signal),"HDAC2; Conc. 4.12E-08 M, t1",840443
same,HDAC2 activity raw data (signal),"HDAC2; Conc. 4.12E-08 M, t2",955487
same,HDAC2 activity raw data (signal),"HDAC2; Conc. 4.57E-09 M, t1",679123
same,HDAC2 activity raw data (signal),"HDAC2; Conc. 4.57E-09 M, t2",728514
same,HDAC2 activity raw data (signal),"HDAC2; Conc. 5.08E-10 M, t1",632244
same,HDAC2 activity raw data (signal),"HDAC2; Conc. 5.08E-10 M, t2",668167
same,HDAC1 activity raw data (signal),HDAC1; [1],393754
same,HDAC1 activity raw data (signal),HDAC1; [2],398456
same,HDAC1 activity raw data (signal),HDAC1; [3],771529
same,HDAC1 activity raw data (signal),HDAC1; [4],714587
same,HDAC1 activity raw data (signal),HDAC1; [5],815475
same,HDAC1 activity raw data (signal),HDAC1; [6],811874
same,HDAC1 activity raw data (signal),HDAC1; [7],879707
same,HDAC1 activity raw data (signal),HDAC1; [8],762845
same,HDAC1 activity raw data (signal),HDAC1; [9],835131
same,HDAC1 activity raw data (signal),HDAC1; [10],788807
same,HDAC1 activity raw data (signal),HDAC1; [11],631956
same,HDAC1 activity raw data (signal),HDAC1; [12],567009
same,HDAC1 activity raw data (signal),HDAC1; [13],777508
same,HDAC1 activity raw data (signal),HDAC1; [14],771678
same,HDAC1 activity raw data (signal),HDAC1; [15],776525
same,HDAC1 activity raw data (signal),HDAC1; [16],821518
same,HDAC1 activity raw data (signal),HDAC1; [17],820973
same,HDAC1 activity raw data (signal),HDAC1; [18],805068
same,HDAC1 activity raw data (signal),HDAC1; [19],825935
same,HDAC1 activity raw data (signal),HDAC1; [20],859992
same,HDAC8 activity raw data (signal),HDAC8; [1],365553
same,HDAC8 activity raw data (signal),HDAC8; [2],330727
same,HDAC8 activity raw data (signal),HDAC8; [3],850929
same,HDAC8 activity raw data (signal),HDAC8; [4],824009
same,HDAC8 activity raw data (signal),HDAC8; [5],979654
same,HDAC8 activity raw data (signal),HDAC8; [6],1006503
same,HDAC8 activity raw data (signal),HDAC8; [7],1072008
same,HDAC8 activity raw data (signal),HDAC8; [8],1101244
same,HDAC8 activity raw data (signal),HDAC8; [9],927307
same,HDAC8 activity raw data (signal),HDAC8; [10],984830
same,HDAC8 activity raw data (signal),HDAC8; [11],572630
same,HDAC8 activity raw data (signal),HDAC8; [12],528648
same,HDAC8 activity raw data (signal),HDAC8; [13],865883
same,HDAC8 activity raw data (signal),HDAC8; [14],851036
same,HDAC8 activity raw data (signal),HDAC8; [15],959123
same,HDAC8 activity raw data (signal),HDAC8; [16],1003485
same,HDAC8 activity raw data (signal),HDAC8; [17],938538
same,HDAC8 activity raw data (signal),HDAC8; [18],927098
same,HDAC8 activity raw data (signal),HDAC8; [19],862623
same,HDAC8 activity raw data (signal),HDAC8; [20],898356
same,HDAC3 activity raw data (signal),"HDAC3; Conc. 1.00E-05 M, t1",556301
same,HDAC3 activity raw data (signal),"HDAC3; Conc. 1.00E-05 M, t2",606764
same,HDAC3 activity raw data (signal),"HDAC3; Conc. 1.11E-06 M, t1",913376
same,HDAC3 activity raw data (signal),"HDAC3; Conc. 1.11E-06 M, t2",1016072
same,HDAC3 activity raw data (signal),"HDAC3; Conc. 1.23E-07 M, t1",993017
same,HDAC3 activity raw data (signal),"HDAC3; Conc. 1.23E-07 M, t2",1391457
same,HDAC3 activity raw data (signal),"HDAC3; Conc. 1.37E-08 M, t1",1020645
same,HDAC3 activity raw data (signal),"HDAC3; Conc. 1.37E-08 M, t2",1085089
same,HDAC3 activity raw data (signal),"HDAC3; Conc. 1.52E-09 M, t1",1012899
same,HDAC3 activity raw data (signal),"HDAC3; Conc. 1.52E-09 M, t2",1059045
same,HDAC3 activity raw data (signal),"HDAC3; Conc. 3.33E-06 M, t1",841514
same,HDAC3 activity raw data (signal),"HDAC3; Conc. 3.33E-06 M, t2",795799
same,HDAC3 activity raw data (signal),"HDAC3; Conc. 3.70E-07 M, t1",980314
same,HDAC3 activity raw data (signal),"HDAC3; Conc. 3.70E-07 M, t2",1161998
same,HDAC3 activity raw data (signal),"HDAC3; Conc. 4.12E-08 M, t1",1033280
same,HDAC3 activity raw data (signal),"HDAC3; Conc. 4.12E-08 M, t2",1094012
same,HDAC3 activity raw data (signal),"HDAC3; Conc. 4.57E-09 M, t1",1032533
same,HDAC3 activity raw data (signal),"HDAC3; Conc. 4.57E-09 M, t2",1050723
same,HDAC3 activity raw data (signal),"HDAC3; Conc. 5.08E-10 M, t1",965053
same,HDAC3 activity raw data (signal),"HDAC3; Conc. 5.08E-10 M, t2",1022182
